Results: patent EP0359821A1, “METHOD OF STERILIZING PLANT ANTHERS” (priority 1988, dated 1989)

Tests used:
[1] = tested on: Diploider Roggen Sorte Gibrid 1864/74; test: Field trial of gametocidal activity, diploid rye Gibrid 1864/74; settings: 1% aqueous emulsion, 10 kg/ha
in vivo = settings: mouse
[2] = tested on: Sommerweizen Sorte Moskovskaya 35; test: Field trial of gametocidal activity, spring wheat; type: in vivo, Weizen; settings: 1% aqueous emulsion; for Anzahl von Körnern der Ähre bei freier Bestäubung / Anzahl von Körnern der Ähre im Isolator / percent sterility at 10000 g/ha: V. period; for percent sterility at 10000 g/ha: read-out: Prozentsatz der Sterilität
[3] = tested on: Winterweizens Sorte Mironovskaya 808; test: Field trial of gametocidal activity (anther sterilisation), winter wheat; type: in vivo, Weizen; settings: 2% aqueous emulsion, 20 kg/ha; for response vs control in vivo at 20000 g/ha: control = 100, read-out: Prozentsatz des Ansetzens bei freier Bestäubung
[4] = tested on: Diploider Roggen Sorte Kharkovskaya 55; test: Field trial of gametocidal activity, diploid rye Kharkovskaya 55; settings: 1% aqueous emulsion, 6 kg/ha; for Anzahl von Körnern der Ähre bei freier Bestäubung / Anzahl von Körnern der Ähre im Isolator / Prozentsatz der Sterilität: V. and VI. periods; for Prozentsatz des Ansetzens bei freier Bestäubung: control = 100
[5] = tested on: Hirse Sorte K-9693 Kormovoe 1; test: Field trial of gametocidal activity, millet K-9693 Kormovoe 1; settings: 1% aqueous emulsion, 10 kg/ha; for Anzahl von Körnern der Rispe bei freier Bestäubung / Anzahl von Körnern der Rispe im Isolator / Prozentsatz der Sterilität: V. or VI. period; for Prozentsatz des Ansetzens bei freier Bestäubung: control = 100
[6] = tested on: Diploider Roggen Sorte Chulpan; test: Field trial of gametocidal activity, diploid rye Chulpan; type: in vivo; settings: single compounds, 1% aqueous emulsion, 10 kg/ha; for response vs control in vivo at 10000 g/ha: read-out: Prozentsatz des Ansetzens bei freier Bestäubung, Chulpan; for pest or weed control at 10000 g/ha: read-out: Prozentsatz der Sterilität, Chulpan
From the text: (§1) Bei Weizen und Tritikale werden Einzelisolatoren verwendet.
Pflanzen von diploidem Roggen Sorte Chulpan werden in der V. oder VI.
Der Verbrauch an Sterilisationsmitteln beträgt 10 kg/ha.

[7] = tested on: Hirse Sorte Mironovskoe 94; test: Field trial of gametocidal activity, millet Mironovskoe 94; type: in vivo; settings: 1% aqueous emulsion, 10 kg/ha; for response vs control in vivo at 10000 g/ha: control = 100, read-out: Prozentsatz des Ansetzens bei freier Bestäubung
Tritikale Sorte PRAG I09 = test: Field trial of gametocidal activity, triticale; type: in vivo; settings: 1% aqueous emulsion, 12 kg/ha; for Prozentsatz des Ansetzens bei freier Bestäubung: control = 100
From the text: as §1
Pflanzen von Tritikale Sorte PRAG I09 werden in der V. und VI.
Der Verbrauch an Sterilisationsmittel beträgt 12 kg/ha.

[8] = tested on: Diploider Roggen Sorte Gibrid 340/65; test: Field trial of gametocidal activity, diploid rye Gibrid 340/65; settings: Gibrid 340/65 (text: 312/65), 1% aqueous emulsion, 10 kg/ha; for Anzahl von Körnern der Ähre bei freier Bestäubung / Anzahl von Körnern der Ähre im Isolator / Prozentsatz der Sterilität: V. and VI. periods; for Prozentsatz des Ansetzens bei freier Bestäubung: control = 100
Sonnenblume Linie VK 119 = test: Field trial of pollen sterilisation, sunflower line VK 119; settings: 0,2% aqueous emulsion, 1,2 kg/ha
[9] = tested on: Sonnenblume Sorte Peredovik; test: Field trial of pollen sterilisation, sunflower Peredovik; type: in vivo; settings: 0,2% aqueous emulsion, 1,2 kg/ke (so in the source); for Ansetzen von Achänen bei freier Bestäubung in % / Ansetzen von Achänen im Isolator bei der Bestäubung mit dem Pollengemisch in %: V. or VI. period
From the text: Pflanzen der Sonnenblume Sorte Peredovik werden in der V. oder VI.
Der Verbrauch an Sterilisationsmittel beträgt 1,2 kg/ke.

[10] = tested on: Tetraploider Roggen Sorte Belta; test: Field trial of gametocidal activity, tetraploid rye Belta; type: in vivo; settings: 1% aqueous emulsion, 10 kg/ha
Roggen Sorte Voskhod 2 = test: Field trial of gametocidal activity, diploid rye Voskhod 2; type: in vivo; settings: 1% aqueous emulsion, 8 kg/ha; for Anzahl von Körnern der Ähre bei freier Bestäubung / Anzahl von Körnern der Ähre im Isolator / Prozentsatz der Sterilität: V. or VI. period; for Prozentsatz des Ansetzens bei freier Bestäubung: control = 100
[11] = control = 100, read-out: Prozentsatz des Ansetzens bei freier Bestäubung
[12] = V. or VI. period of organogenesis
[13] = V. or VI. period of organogenesis, read-out: Prozentsatz der Sterilität
[14] = V. or VI. period, read-out: Prozentsatz der Sterilität

OCC(O)COc1ccc(F)cc1 (stereo not drawn) [Beispiel 4]
Anzahl von Körnern der Ähre bei freier Bestäubung ([1]; V. period): 42,8
Anzahl von Körnern der Ähre im Isolator ([1]; V. period): 0,0
Prozentsatz der Sterilität ([1]; V. period): 100%
Prozentsatz des Ansetzens bei freier Bestäubung ([1]; control = 100): 88,2%
LD50 (in vivo; LD50, weisse Mäuse): 400 to 600 mg/kg
Anzahl von Körnern der Ähre bei freier Bestäubung ([2]; 10 kg/ha): 25,9
Anzahl von Körnern der Ähre im Isolator ([2]; 10 kg/ha): 0,4
percent sterility at 10000 g/ha ([2]; 10 kg/ha): 98.6%
response vs control in vivo [2, 11]: 94.2%
Anzahl von Körnern der Ähre bei freier Bestäubung [3, 12]: 30,6
Anzahl von Körnern der Ähre im Isolator [3, 12]: 0,0
response vs control in vivo at 20000 g/ha [3]: 75.4%

OCC(O)COc1ccc(Cl)cc1Cl (stereo not drawn) [Beispiel 6, 3-(2',4'-Dichlorphenoxy)-propandiol-I,2]
Anzahl von Körnern der Ähre bei freier Bestäubung ([2]; 10 kg/ha): 26,0
Anzahl von Körnern der Ähre im Isolator ([2]; 10 kg/ha): 0,1
percent sterility at 10000 g/ha ([2]; 10 kg/ha): 99.9%
response vs control in vivo at 10000 g/ha ([2]; 10 kg/ha, control = 100, read-out: Prozentsatz des Ansetzens bei freier Bestäubung): 94.5%
Anzahl von Körnern der Ähre bei freier Bestäubung [3, 12]: 35,0
Anzahl von Körnern der Ähre im Isolator [3, 12]: 0,8
percent sterility at 20000 g/ha [3, 13]: 97.9%
response vs control in vivo at 20000 g/ha [3]: 86.4%
Anzahl von Körnern der Ähre bei freier Bestäubung [4]: 41,6
Anzahl von Körnern der Ähre im Isolator [4]: 0,0
Prozentsatz der Sterilität [4]: 100%
Prozentsatz des Ansetzens bei freier Bestäubung [4]: 90,2%

OCC(O)CSc1cccc(Cl)c1 (stereo not drawn) [Beispiel 8, 3-(3'-Chlorphenylthio)-propandiol-1,2]
LD50 (in vivo; LD50, weisse Mäuse): 400 mg/kg
Anzahl von Körnern der Ähre bei freier Bestäubung ([2]; 10 kg/ha): 24,6
Anzahl von Körnern der Ähre im Isolator ([2]; 10 kg/ha): 0,8
percent sterility at 10000 g/ha ([2]; 10 kg/ha): 99.7%
response vs control in vivo [2, 11]: 89.5%
Anzahl von Körnern der Ähre bei freier Bestäubung [3, 12]: 32,7
Anzahl von Körnern der Ähre im Isolator [3, 12]: 2,6
response vs control in vivo at 20000 g/ha [3]: 80.7%
Anzahl von Körnern der Rispe bei freier Bestäubung [5]: 100,8
Anzahl von Körnern der Rispe im Isolator [5]: 0,0
Prozentsatz der Sterilität [5]: 100%
Prozentsatz des Ansetzens bei freier Bestäubung [5]: 68,7%
Anzahl von Körnern der Ähre bei freier Bestäubung ([6]; Chulpan, V. or VI. period): 52,1
Anzahl von Körnern der Ähre im Isolator ([6]; Chulpan, V. or VI. period): 0,0
percent sterility at 10000 g/ha ([6]; Chulpan, V. or VI. period, read-out: Prozentsatz der Sterilität): 100%
response vs control in vivo at 10000 g/ha ([6]; control = 100): 91.9%

CCC(CO)(CO)CO [Beispiel 39, Etriol]
Anzahl von Körnern der Rispe bei freier Bestäubung ([7]; V. or VI. period): 355,1
Anzahl von Körnern der Rispe im Isolator ([7]; V. or VI. period): 0,0
percent pollen sterility at 10000 g/ha [7, 14]: 100%
response vs control in vivo at 10000 g/ha [7]: 93.6%
Anzahl von Körnern der Ähre bei freier Bestäubung (Tritikale Sorte PRAG I09; V. and VI. period): 68,2
Anzahl von Körnern der Ähre im Isolator (Tritikale Sorte PRAG I09; V. and VI. period): 0,7
Prozentsatz der Sterilität (Tritikale Sorte PRAG I09; V. and VI. period): 99,0%
Prozentsatz des Ansetzens bei freier Bestäubung (Tritikale Sorte PRAG I09): 98,8%
Anzahl von Körnern der Ähre bei freier Bestäubung [8]: 53,2
Anzahl von Körnern der Ähre im Isolator [8]: 1,6
Prozentsatz der Sterilität [8]: 96,7%
Prozentsatz des Ansetzens bei freier Bestäubung [8]: 98,5%

OCCCl [Beispiel 45, 2-Chloräthanol]
Ansetzen von Achänen bei freier Bestäubung in % (Sonnenblume Linie VK 119): 83,5%
Ansetzen von Achänen im Isolator bei der Bestäubung mit dem Pollengemisch in % (Sonnenblume Linie VK 119): 0,0%
Pollensterilität in % (Sonnenblume Linie VK 119): 100%
Pollensterilität in % [9]: 100%
Ansetzen von Achänen bei freier Bestäubung in % [9]: 83,9%
Ansetzen von Achänen im Isolator bei der Bestäubung mit dem Pollengemisch in % [9]: 0,0%
LD50 (in vivo): 580 mg/kg
Anzahl von Körnern der Ähre bei freier Bestäubung ([10]; V. or VI. period): 42,2
Anzahl von Körnern der Ähre im Isolator ([10]; V. or VI. period): 0,0
response vs control in vivo at 10000 g/ha [10, 11]: 95.3%
Anzahl von Körnern der Rispe bei freier Bestäubung [5]: 130,5
Anzahl von Körnern der Rispe im Isolator [5]: 0,0
Prozentsatz der Sterilität [5]: 100%
Prozentsatz des Ansetzens bei freier Bestäubung [5]: 89,0%
Anzahl von Körnern der Ähre bei freier Bestäubung ([6]; Chulpan, V. or VI. period): 80,2
Anzahl von Körnern der Ähre im Isolator ([6]; Chulpan, V. or VI. period): 2,2
pest or weed control at 10000 g/ha ([6]; V. or VI. period): 95.8%
response vs control in vivo at 10000 g/ha ([6]; control = 100): 88.5%

NCCO.O=CO [Beispiel 48, Monoäthanolaminsalz der Ameisensäure]
Anzahl von Körnern der Rispe bei freier Bestäubung ([7]; V. or VI. period): 352,2
Anzahl von Körnern der Rispe im Isolator ([7]; V. or VI. period): 0,0
Prozentsatz der Sterilität ([7]; V. or VI. period): 100%
Prozentsatz des Ansetzens bei freier Bestäubung ([7]; control = 100): 92,8%
Prozentsatz der Sterilität (Tritikale Sorte PRAG I09; V. and VI. period): 99,9%
Prozentsatz des Ansetzens bei freier Bestäubung (Tritikale Sorte PRAG I09): 92,9%
Anzahl von Körnern der Ähre bei freier Bestäubung ([6]; Chulpan, V. or VI. period): 55,2
Anzahl von Körnern der Ähre im Isolator ([6]; Chulpan, V. or VI. period): 1,2
Prozentsatz der Sterilität ([6]; Chulpan, V. or VI. period): 97,7%
Prozentsatz des Ansetzens bei freier Bestäubung ([6]; Chulpan, control = 100): 97,4%

O=C(COc1ccc(F)cc1)OCCCl [Beispiel I, β-Chloräthylester der 4-Fluorphenoxyessigsäure]
LD50 (in vivo; LD50, weisse Mäuse): 400 mg/kg
Anzahl von Körnern der Ähre bei freier Bestäubung ([2]; 10 kg/ha): 23,8
Anzahl von Körnern der Ähre im Isolator ([2]; 10 kg/ha): 0,4
percent sterility at 10000 g/ha ([2]; 10 kg/ha): 98.5%
response vs control in vivo [2, 11]: 86.5%
Anzahl von Körnern der Ähre bei freier Bestäubung [8]: 45,6
Anzahl von Körnern der Ähre im Isolator [8]: 0,0
Prozentsatz der Sterilität [8]: 100%
Prozentsatz des Ansetzens bei freier Bestäubung [8]: 84,4%
Anzahl von Körnern der Ähre bei freier Bestäubung [3, 12]: 30,4
percent sterility at 20000 g/ha [3, 13]: 99.8%
Anzahl von Körnern der Ähre bei freier Bestäubung [4]: 42,7
Anzahl von Körnern der Ähre im Isolator [4]: 0,0
Prozentsatz der Sterilität [4]: 100%
Prozentsatz des Ansetzens bei freier Bestäubung [4]: 94,7%

ClCC1CO1 (stereo not drawn) [Beispiel II, 3-Chlor-1,2-epoxypropan]
Ansetzen von Achänen bei freier Bestäubung in % (Sonnenblume Linie VK 119): 85,0%
Ansetzen von Achänen im Isolator bei der Bestäubung mit dem Pollengemisch in % (Sonnenblume Linie VK 119): 0,0%
Pollensterilität in % (Sonnenblume Linie VK 119): 100%
Pollensterilität in % [9]: 100%
Ansetzen von Achänen bei freier Bestäubung in % [9]: 82,3%
Ansetzen von Achänen im Isolator bei der Bestäubung mit dem Pollengemisch in % [9]: 0,0%
LD50 (in vivo): 238 mg/kg
Anzahl von Körnern der Rispe bei freier Bestäubung ([7]; V. or VI. period): 312,3
Anzahl von Körnern der Rispe im Isolator ([7]; V. or VI. period): 0,0
pest or weed control at 10000 g/ha [7, 14]: 100%
response vs control in vivo at 10000 g/ha [7]: 82.2%
Anzahl von Körnern der Ähre bei freier Bestäubung (Roggen Sorte Voskhod 2): 51,7
Anzahl von Körnern der Ähre im Isolator (Roggen Sorte Voskhod 2): 0,6
Prozentsatz der Sterilität (Roggen Sorte Voskhod 2): 98,8%
Prozentsatz des Ansetzens bei freier Bestäubung (Roggen Sorte Voskhod 2): 94,7%
pest or weed control at 20000 g/ha [3, 13]: 99.8%
response vs control in vivo at 20000 g/ha [3]: 77.5%
Anzahl von Körnern der Ähre bei freier Bestäubung ([6]; Chulpan, V. or VI. period): 48,9
Anzahl von Körnern der Ähre im Isolator ([6]; Chulpan, V. or VI. period): 0,0
pest or weed control at 10000 g/ha ([6]; V. or VI. period): 100%
response vs control in vivo at 10000 g/ha ([6]; control = 100): 86.2%

Äthanolaminsalz der Tetraphthalsäure [Beispiel 34]
Anzahl von Körnern der Ähre bei freier Bestäubung (Roggen Sorte Voskhod 2): 54,0
Anzahl von Körnern der Ähre im Isolator (Roggen Sorte Voskhod 2): 1,2
Prozentsatz der Sterilität (Roggen Sorte Voskhod 2): 97,6%
Prozentsatz des Ansetzens bei freier Bestäubung (Roggen Sorte Voskhod 2): 98,9%
